# Legend:
# [1] = system: epithelium and endothelium homogenates of rabbit corneas; experiment: In vitro Fe(III)-ascorbic acid induced lipid peroxidation in epithelium and endothelium homogenates of rabbit corneas; type: biochemical; conditions: homogenate + 10 μM FeCl3 and ascorbic acid, 27° C., 30 minutes, 10^−5 M pirenoxine; mean ± SEM
# Excerpt: The experimental procedure for the evaluation of the inhibiting action against the lipid-peroxidation exerted by pirenoxine in cornea epithelial and endothelial cells made use of Fe(III)-ascorbic acid system to induce the peroxidative phenomenon. The oxidative attack on membrane lipids was confirmed by the spectrophotometric determinations of both the conjugated dienes and fluorescent lipid-soluble substances which, as known, are generated by the oxidative degradation of lipid molecules.
# Used experimental procedure included the following steps: a) abstraction of the cornea from the eye of male pigmented rabbits suitably selected and prepared for the study; b) incubation of the latter in 100 μM phosphate buffer, pH 7,5, in the presence of 1000 U collagenase and 5 μM CaCl2 for 20 hours at 37° C.; c) centrifugation at 35000 rpm at 0° C. for 10 minutes and washings of the sediment with phosphate buffer; d) homogenization of the cellular sediment in 1 ml of buffer, pH 7,4 (10% w/v); e) incubation of a suitable homogenate aliquot with 10 μM FeCl3 and ascorbic acid in phosphate buffer, pH 7,4, at 27° C. for 30 minutes in presence and in absence of 10^−5 M pirenoxine; f) extraction of the lipid-soluble substances using chloroform/methanol mixture (2:1 v/v). […]
# [2] = system: rabbit corneas incubated with f-MLP-stimulated autologous macrophages; experiment: In vitro protection of whole corneas against ROS from f-MLP-stimulated autologous rabbit macrophages; type: cell-based; conditions: 10^−5 M pirenoxine, 10^−7 M f-MLP stimulated macrophages, two hours at 37° C.
# Procedure: In order to evaluate the inhibition exerted by pirenoxine against the oxidizing activity of macrophage produced ROS at level of the cornea, the following procedure was carried out: (a) broncho-alveolar washing of the rabbit to obtain the macrophages; (b) abstraction of the cornea from the rabbit eye; (c) incubation of the corneas with 10^−7 M f-MLP stimulated or not stimulated macrophages (800000 cells/well) for two hours at 37° C., 5 % CO2 in presence and in absence of 10^−5 M pirenoxine; (d) separation and homogenization of the epithelial and endothelial corneal cells and subsequent determination of fluorescence as described in b, c, d and f steps of the above methodology.
# [3] = system: epithelial corneal cells (SIRC); experiment: In vitro protection of UV312 irradiated epithelial corneal cells (SIRC); type: cell-based; conditions: for Lipid-soluble fluorescent substances, U/mg protein / Lipid-soluble fluorescent substances, U/well: UV312 80 mJ/cm^2, 10^−5 pirenoxine, 17 hours at 37° C.
# Procedure: The protective effect of pirenoxine on epithelial comeal cells (SIRC) irradiated for 36″ using UV312 light (80 mJ/cm^2), according to the following procedure: (a) the comeal cells were plated in 35 mm diameter wells; (b) at 80% confluency the cells were contacted with a medium at low (0,2%) serum content to inhibit the proliferation thereof during the experiment (c) the cells were irradiated with UV light in presence and in absence of 10^−5 pirenoxine, incubated at 37° C. for 17 hours and homogenized in 10 mM f) phosphate buffer, pH 7,4; (d) the lipid-soluble fluorescent substances and the proteins contained in suitable homogenate aliquots were determined.
# [4] = system: rabbit corneas; experiment: In vivo effect on rabbit corneas after intrastromal injection of UV irradiated ferritin; conditions: two drops of 0,005% pirenoxine every hour 8 times a day over 4 days, corneas at 5th day
# Procedure: (a) rabbits were anaesthetized by low pentobarbital doses (20 mg/kg); (b) 25 μl of 50 μM ferritin in 0,15 M NaCl were injected in the stroma of the cornea by a 0,33×13 mm/29G insulin syringe whereas the controls were treated with 25 μl physiological solution; (c) in the eyes every hour two drops (1 drop=30 μl) of 0,005% pirenoxine in 0,145 M NaCl 8 times a day over 4 days were instilled, whereas the controls were treated only with the solvent, in the same amount and frequency; (d) at the 5th day the animals were sacrificed using a pentobarbital overdose (100 mg/kg); (e) the corneas were abstracted and the tissue cells separated and collected according to the procedure described in the ex vivo experiment; (f) the conjugated dienes and fluorescent soluble lipid contained in suitable homogenate aliquots were determined.
# In vivo conjugated diene and lipid soluble fluorescence substance formation in corneas 5 days after the rabbit eyes were submitted to intrastromal injection of UV-irradiated ferritin and topical instillation of pirenoxine solution (2 drops every hour for 8 hr over 4 days)
# [5] = reconstituted aqueous solution, ambient temperature; cited from earlier work
compound,measurement,setting,value
"O=C(O)c1cc(O)c2c3nc4ccccc4oc-3cc(=O)c2n1 [pirenoxine, 1-hydroxy-5-oxo-5H-pyrido-[3,2a]-phenoxazin-3-carboxylic acid]",Conjugated dienes,[1],2.77 ± 0.07 nmol/hemicornea
same,Fluorescence (fluorescent lipid-soluble substances),[1],5.22 ± 0.13 U/hemicornea
same,Induced fluorescence of lipid soluble substances (FIG. 1),[2],remarkably lower than the controls and are comparable to those of normal corneas (basal values)
same,"Lipid-soluble fluorescent substances, U/mg protein",[3]; Cells 14/01,2.76 U/mg protein
same,"Lipid-soluble fluorescent substances, U/well",[3]; Cells 14/01,0.92 U/well
same,"Lipid-soluble fluorescent substances, U/mg protein",[3]; Cells 17/12,9.08 U/mg protein
same,"Lipid-soluble fluorescent substances, U/well",[3]; Cells 17/12,3.66 U/well
same,"Lipid-soluble fluorescent substances, U/mg protein",[3]; Cells 20/12,7.35 U/mg protein
same,"Lipid-soluble fluorescent substances, U/well",[3]; Cells 20/12,1.8 U/well
same,Lipid-soluble fluorescent substances relative to irradiated cells not protected by pirenoxine,"[3]; UV312 irradiation, 10^−5 pirenoxine",notably lower (about two and half times)
same,Conjugated diene,[4],1.7 Nmoles/hemicornea
same,Fluorescence,[4],4.4 Unit/hemicornea
same,Storage time of reconstituted solution without degradation,[5],about two weeks without degradation

# — patent US6610686B1, “Use of pirenoxine for the protection of corneal tissues in photokeractomy” (Ausimont S.p.A., priority 1999, dated 2003)
